Source: patent publication US20080063628A1, “METHODS TO PROMOTE CELL DIFFERENTIATION” (priority 2006, published 2008)

System: amniotic fluid-derived cell line
Test: Two sequential low dose trichostatin A treatments, gene expression by RT-PCR (Example 7)
Format: cell-based, human
Details: for Gata1 gene expression / HNF (HNF-3 beta) gene expression / Insulin gene expression / Pdx-1 gene expression / sox17 gene expression: 500 nM 0-24 h + 96-120 h
Experimental: Several cell lines obtained from different amniotic fluid specimens (see Example 14) and pancreas donors (see Example 13) were tested with similar results. Two lines at similar passage number but derived from different amniotic fluid specimens are shown in Table VII-A and Table VII-B for this example. One of these cell lines was also used in examples 2 and 4 above. In addition, this example also contains comparison data in Table VII-C and Table VII-D for a single pancreatic-derived stromal line grown to early and late passage number.
Amniotic fluid derived cells or pancreatic-derived stromal cells were seeded into 24-well tissue culture plates at a density of 5000/cm^2 and cultured in AMNIOMAX (Invitrogen) or DMEM with 10% FBS respectively under standard cell culture conditions until confluent. After the cells reached confluency, amniotic fluid derived cells were treated at time 0 hours with a dose of 500 nM trichostatin A, and pancreatic-derived stromal cells were treated with a dose of 1.25 μM trichostatin A solubilized in DMSO and medium. At time 24 hours, cell cultures underwent a complete medium change to remove all traces of trichostatin A. At time 96 hours, cell cultures were re-fed with fresh medium and received a second dose of trichostatin A at the same concentration as used previously. At time 120 hours, cell cultures again underwent a complete medium change and were cultured for an additional 24 hours or […] total incubation time.
Samples were taken daily for RT-PCR at the times indicated in Table VII-A to D. The culture medium was removed, and samples were rinsed in PBS then collected in RLT with β-mercaptoethanol (Qiagen). RNA was purified using the RNeasy Mini Kit (Qiagen) and RNA quantity and quality were determined using a spectrophotometer. cDNA was made using the iScript cDNA synthesis kit (BioRad).
Samples of 20 ng cDNA were used in each reaction to determine the expression levels of the following genes in amniotic fluid-derived cells: Gata1, HNF-3 beta, Pdx-1, insulin, and Sox17. Similarly, samples of 20 ng cDNA were used in each reaction to determine the expression level of the following genes in pancreatic-derived cells: glucagon, HNF-3 beta, insulin and Pdx-1. Real-Time PCR was performed on the Applied Biosystems 7500, and data was analyzed using the accompanying software according to the methods described in Example 15.
Real-time PCR amplifcation and quantitative analysis. Unless otherwise stated, all reagents were purchased from Applied Biosystems. Real-time PCR reactions were performed using the ABI PRISM™ 7500 Sequence Detection System. TAQMAN™ FAST UNIVERSAL PCR MASTER MIX™ (ABI, CA) was used with 20 ng of reverse transcribed RNA in a total reaction volume of 20 μl. Each cDNA sample was run in duplicate to allow correction of pipetting errors. Primers and FAM-labeled TAQMAN™ probes were used at concentrations of 200 nM. The level of expression for each target gene was normalized using the pre-developed Applied Biosystem's human glyceraldehyde-3-phosphate dehydrogenase (GAPDH) endogenous control kit. Primers and probes were designed using either ABI PRISM PRIMER EXPRESS™ software or a pre-developed ABI gene analysis kit. For each gene, either one of the primers or the probe were designed to be exon-boundary spanning. This eliminated the possibility of the primers/probe binding to any genomic DNA present. The primer and probe sets are listed as follows: Pdx-1 (Hs00426216), Insulin (Hs00355773), glucagon (Hs00174967), and FoxA2 (HNF 3-beta) (Hs00232764). The remaining primers were designed using the PRIMERS program (ABI, CA). After an initial 95° C. incubation for 20 sec, samples were cycled 40 times in two stages: a denaturation step at 95° C. for 3 sec, followed by an annealing/extension step at 60° C. for 30 sec. […]

In the case of CC(/C=C/C(=O)NO)=C\[C@@H](C)C(=O)c1ccc(N(C)C)cc1 [trichostatin A], the “Insulin RT-PCR detection cycle” value (0.5 μM, by 48 hours (after removal at 24 h)) is reported as 36 cycles, the “HNF-3 beta RT-PCR detection cycle” value (0.5 μM, following the first treatment) is reported as 33 cycles and the “HNF-3 beta RT-PCR detection cycle” value (0.5 μM, following the second treatment) is reported as 37 cycles. The “Pdx-1 RT-PCR detection cycle” value (0.5 μM, for 24 hours following the addition) was 37 cycles, the Gata1 gene expression (24 hrs) was “nd (not detectable at >40 cycles by RT-PCR)” and the “HNF (HNF-3 beta) gene expression” value (24 hrs) was “+++ (detectable at less than 35 cycles by RT-PCR with SE less than 0.9)”. For the same compound, the Insulin gene expression (24 hrs) was “nd (not detectable at >40 cycles by RT-PCR)”, the Pdx-1 gene expression (24 hrs) was “+ (detectable between 35 and 40 cycles by RT-PCR)” and the sox17 gene expression (24 hrs) was “+++ (detectable at less than 35 cycles by RT-PCR with SE less than 0.9)”. For the same compound, the Gata1 gene expression (48 hrs) was “nd (not detectable at >40 cycles by RT-PCR)”, the “HNF (HNF-3 beta) gene expression” value (48 hrs) was “+++ (detectable at less than 35 cycles by RT-PCR with SE less than 0.9)” and the Insulin gene expression (48 hrs) was “+ (detectable between 35 and 40 cycles by RT-PCR)”. The Pdx-1 gene expression (48 hrs) was “nd (not detectable at >40 cycles by RT-PCR)”, the sox17 gene expression (48 hrs) was “+++ (detectable at less than 35 cycles by RT-PCR with SE less than 0.9)” and the Gata1 gene expression (72 hrs) was “nd (not detectable at >40 cycles by RT-PCR)”. For the same compound, the “HNF (HNF-3 beta) gene expression” value (72 hrs) was “+ (detectable between 35 and 40 cycles by RT-PCR)”, the Insulin gene expression (72 hrs) was “+ (detectable between 35 and 40 cycles by RT-PCR)” and the Pdx-1 gene expression (72 hrs) was “nd (not detectable at >40 cycles by RT-PCR)”. The sox17 gene expression (72 hrs) was “+++ (detectable at less than 35 cycles by RT-PCR with SE less than 0.9)”, the Gata1 gene expression (96 hrs) was “nd (not detectable at >40 cycles by RT-PCR)” and the “HNF (HNF-3 beta) gene expression” value (96 hrs) was “nd (not detectable at >40 cycles by RT-PCR)”. The Insulin gene expression (96 hrs) was “+ (detectable between 35 and 40 cycles by RT-PCR)”, the Pdx-1 gene expression (96 hrs) was “nd (not detectable at >40 cycles by RT-PCR)” and the sox17 gene expression (96 hrs) was “+++ (detectable at less than 35 cycles by RT-PCR with SE less than 0.9)”. For the same compound, the Gata1 gene expression (120 hrs) was “nd (not detectable at >40 cycles by RT-PCR)”, the “HNF (HNF-3 beta) gene expression” value (120 hrs) was “+ (detectable between 35 and 40 cycles by RT-PCR)” and the Insulin gene expression (120 hrs) was “+ (detectable between 35 and 40 cycles by RT-PCR)”. The Pdx-1 gene expression (120 hrs) was “nd (not detectable at >40 cycles by RT-PCR)”, the sox17 gene expression (120 hrs) was “+++ (detectable at less than 35 cycles by RT-PCR with SE less than 0.9)” and the Gata1 gene expression (144 hrs) was “nd (not detectable at >40 cycles by RT-PCR)”. The “HNF (HNF-3 beta) gene expression” value (144 hrs) was “+ (detectable between 35 and 40 cycles by RT-PCR)”, the Insulin gene expression (144 hrs) was “+ (detectable between 35 and 40 cycles by RT-PCR)” and the Pdx-1 gene expression (144 hrs) was “nd (not detectable at >40 cycles by RT-PCR)”. The sox17 gene expression (144 hrs) was “+++ (detectable at less than 35 cycles by RT-PCR with SE less than 0.9)”.
